For one assay, the target named is DGKζ (Homo sapiens (Human), UniProt Q13574). The assay is described as follows: Biochemical DGK IC50 assay (ADP-Glo, lipid micelle substrate), DGKζ. As to conditions: full length DGKζ 0.5 nM, ATP 140 μM, DAG 80 μM. On the procedure:
(§1) Enzymatic reactions of DGKζ, DGKα and DGKδ were performed using ADP-Glo assay with lipid micelle substrate. […] Full length DGKα (D21-10BG, SignalChem) and full length DGKδ (D23-10G, SignalChem) were purchased. Lipid micelle was prepared by dissolving DAG (Sigma, 317505-10MG) and PS (Sigma, P7769-100MG) with chloroform which was furtherly removed by rotary evaporation. The resulted product was resuspended in buffer containing 25 mM HEPES pH 7.0, 0.5 mM EDTA and 160 mM Octyl P-D glucopyranoside by vigorous mixing and ultrasonic (IID, Scientz).
(§2) The inhibition activities testing for the compound disclosed herein were carried out at room temperature in assay buffer containing 50 mM HEPES, 10 mM MgCl2, 0.01% BSA, 0.1 mM Na3VO4, 0.005% Tween-20 and 0.01 mM CaCl2. Compounds in DMSO were dispensed into wells of a black 384 well plate (Corning 4514) using D300e digital dispenser (Tecan). […] 3 μL 2× enzyme solution was added to wells. […] After 1 hour reaction, 5 μL ADP-Glo reagent (Promga V9101) was added and incubated for 40 minutes. 10 μL Kinase Detection reagent was added and incubated for 30 minutes. Luminescence was measured on a microplate reader (PHERAstar FSX, BMG labtech). The IC50s are calculated based on inhibition of enzyme activity in the presence of increasing concentrations of compounds.
Human His-TEV-DGK-zeta-pFastBac1 and human baculovirus samples was generated using the Bac-to-Bac baculovirus expression system (Invitrogen) according to the manufacturer's protocol. The DNA used for expression of DGK-zeta, have SEQ ID Nos: 1. Baculovirus amplification was achieved using infected SF9 cells at 1:2000 virus/cells ratios, and grown for 96 hours at 27° C. post-transfected.
The expression scaled up for each protein was carried out in the […] from CORNING. 4 L of 3×10^6 cells/mL Sf9 cells (Expression System, Invitrogen) grown in SF900™ II SFM insect medium (Expression System) was infected with virus stock at 1:200 virus/cells ratio, and grown for 48 hours at 27° C. post-transfection. The infected cell culture was harvested by centrifugation at 6000 rpm for 15 min 4° C. in a SORVALL LYNX6000 centrifuge. The cell pellets were stored at −80° C.
Full length human DGKζ produced as described above, was purified from Sf9 baculovirus-infected insect cell paste. The cells were lysed using sonication method, and the lysates were clarified by centrifugation.
Background: ADP-Glo turns the ADP formed in a reaction into a luminescent signal.

Another assay has as its target DGKα (Homo sapiens (Human), UniProt P23743). The assay is described as follows: Biochemical DGK IC50 assay (ADP-Glo, lipid micelle substrate), DGKα. Further: full length DGKα 7.5 nM. The note with it: full length DGKα […], ATP 140 μM, DAG 80 μM. On the procedure:
as §1, §2

As a reminder, the pIC50 is −log10 of the IC50, conventionally taken in molar units. Low values mean a high IC50, high ones a low IC50.

pIC50: −log10 of the molar value. Bounds are passed on as bounds.

DGKζ, sequence (Q13574 other isoform, or with tags, fused parts or gaps): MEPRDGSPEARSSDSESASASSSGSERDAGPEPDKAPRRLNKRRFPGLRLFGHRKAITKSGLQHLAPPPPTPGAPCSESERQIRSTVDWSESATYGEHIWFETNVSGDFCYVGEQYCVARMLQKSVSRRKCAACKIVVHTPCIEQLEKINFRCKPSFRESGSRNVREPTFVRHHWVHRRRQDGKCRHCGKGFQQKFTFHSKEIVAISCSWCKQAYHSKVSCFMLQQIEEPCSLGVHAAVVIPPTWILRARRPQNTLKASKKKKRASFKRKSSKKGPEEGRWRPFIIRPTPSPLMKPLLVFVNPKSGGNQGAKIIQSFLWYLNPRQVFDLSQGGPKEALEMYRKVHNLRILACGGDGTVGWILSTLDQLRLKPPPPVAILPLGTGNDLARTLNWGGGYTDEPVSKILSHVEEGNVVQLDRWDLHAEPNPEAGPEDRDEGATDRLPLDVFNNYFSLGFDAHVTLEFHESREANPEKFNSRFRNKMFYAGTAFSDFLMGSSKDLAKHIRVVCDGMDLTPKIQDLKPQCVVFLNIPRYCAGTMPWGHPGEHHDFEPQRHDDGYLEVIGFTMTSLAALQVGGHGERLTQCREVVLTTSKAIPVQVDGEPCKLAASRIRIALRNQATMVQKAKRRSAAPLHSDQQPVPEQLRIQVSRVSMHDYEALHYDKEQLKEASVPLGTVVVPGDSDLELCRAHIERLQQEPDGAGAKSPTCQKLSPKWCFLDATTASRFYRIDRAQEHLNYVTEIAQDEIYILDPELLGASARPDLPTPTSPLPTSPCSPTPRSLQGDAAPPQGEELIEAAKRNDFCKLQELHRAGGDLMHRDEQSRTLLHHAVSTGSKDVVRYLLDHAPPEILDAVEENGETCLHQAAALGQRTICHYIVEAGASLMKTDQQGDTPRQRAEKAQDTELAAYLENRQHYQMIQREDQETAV
DGKα, sequence (P23743 whole entry): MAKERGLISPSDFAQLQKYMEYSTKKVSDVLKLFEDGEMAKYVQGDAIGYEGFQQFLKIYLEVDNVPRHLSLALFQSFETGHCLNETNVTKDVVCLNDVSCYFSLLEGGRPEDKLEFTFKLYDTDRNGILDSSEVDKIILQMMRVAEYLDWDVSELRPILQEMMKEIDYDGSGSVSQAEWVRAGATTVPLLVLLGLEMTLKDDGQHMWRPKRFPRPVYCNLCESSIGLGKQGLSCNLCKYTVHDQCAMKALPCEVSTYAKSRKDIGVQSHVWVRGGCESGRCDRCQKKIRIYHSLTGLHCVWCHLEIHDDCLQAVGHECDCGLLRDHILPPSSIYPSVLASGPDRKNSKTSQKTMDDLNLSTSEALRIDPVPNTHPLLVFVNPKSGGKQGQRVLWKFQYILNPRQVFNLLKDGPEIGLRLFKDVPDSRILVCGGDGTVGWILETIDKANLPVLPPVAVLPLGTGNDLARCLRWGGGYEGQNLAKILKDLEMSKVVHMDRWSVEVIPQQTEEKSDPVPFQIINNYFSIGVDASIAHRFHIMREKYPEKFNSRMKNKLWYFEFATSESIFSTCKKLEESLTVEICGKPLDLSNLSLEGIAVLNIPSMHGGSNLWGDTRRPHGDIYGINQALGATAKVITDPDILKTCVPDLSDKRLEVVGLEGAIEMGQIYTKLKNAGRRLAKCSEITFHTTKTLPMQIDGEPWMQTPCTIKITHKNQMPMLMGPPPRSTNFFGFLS

Turning to `CC[C@H]1CN(C(C)c2ccn3nc(C)c(F)c3n2)[C@H](CC)CN1c1cc(=O)n(C)c2cn(CC#N)nc12` (single isomer, unassigned) [Compound A160b], the pIC50 against DGKζ is 7.82; at DGKα, 7.33. On the same counts, the results for `CC[C@H]1CN(C(C)c2ccc3nccn3c2)[C@H](CC)CN1c1cc(=O)n(C)c2cn(CC#N)nc12` (single isomer, unassigned) [Compound A82b] are 5.07 and 5.52.

`CC[C@H]1CN(C(C)c2ccc(COC)cn2)[C@H](CC)CN1c1cc(=O)n(C)c2cn(CC#N)nc12` (stereo partly drawn) [Compound A61, 2-(7-((2S,5R)-2,5-diethyl-4-(1-(5-(methoxymethyl)pyridin-2-yl)ethyl)piperazin-1-yl)-4-methyl-5-oxo-4,5-dihydro-2H-pyrazolo[4,3-b]pyridin-2-yl)acetonitrile]: the results for the pIC50 on DGKζ and on DGKα were 6.53 and 6.84, respectively.

For the compound `CC#CCn1cc2c(n1)c(N1C[C@@H](CC)N(C(C)c3ccc4nc(C)sc4c3)C[C@@H]1C)cc(=O)n2C` (single isomer, unassigned) [Compound A115b], the pIC50 on DGKζ is 5.19; against DGKα it was 5.90.

As to `CC#CCn1cc2c(n1)c(N1C[C@@H](CC)N(C(C)c3ccc4ncsc4c3)C[C@@H]1C)cc(=O)n2C` (single isomer, unassigned) [Compound A112b], the results for the pIC50 at DGKζ and against DGKα were below 5.00 and 6.30, respectively. In the case of `CC[C@H]1CN(C(C)c2ccc(C3CC3)c(C)n2)[C@H](CC)CN1c1cc(=O)n(C)c2cn(CC#N)nc12` (stereo partly drawn) [Compound A58, 2-(7-((2S,5R)-4-(1-(5-cyclopropyl-6-methylpyridin-2-yl)ethyl)-2,5-diethylpiperazin-1-yl)-4-methyl-5-oxo-4,5-dihydro-2H-pyrazolo[4,3-b]pyridin-2-yl)acetonitrile], the pIC50 at DGKζ was 7.03; against DGKα it was 6.31. On the same counts, the results for `CC[C@H]1CN(C(C)c2ccc(C)c(COC)n2)[C@H](CC)CN1c1cc(=O)n(C)c2cn(CC#N)nc12` (stereo partly drawn) [Compound A56, 2-(7-((2S,5R)-2,5-diethyl-4-(1-(6-(methoxymethyl)-5-methylpyridin-2-yl)ethyl)piperazin-1-yl)-4-methyl-5-oxo-4,5-dihydro-2H-pyrazolo[4,3-b]pyridin-2-yl)acetonitrile] are 6.57 and 5.59. The matching figures for `CC[C@@H]1CN(c2cc(=O)n(C)c3cn(CC#N)nc23)[C@@H](C)CN1C(C)c1ccn2nccc2n1` (single isomer, unassigned) [Compound A166a]: 6.64 and 7.03. The matching figures for `CC[C@H]1CN(C(C)c2ccn3ncc(F)c3n2)[C@H](CC)CN1c1cc(=O)n(C)c2cn(CC#N)nc12` (single isomer, unassigned) [Compound A161b]: 7.74 and 7.49. Turning to `CC[C@H]1CN(C(C)c2ccc(OC3COC3)cc2F)[C@H](CC)CN1c1cc(=O)n(C)c2cn(CC#N)nc12` (stereo partly drawn) [Compound A22, 2-(7-((2S,5R)-2,5-diethyl-4-(1-(2-fluoro-4-(oxetan-3-yloxy)phenyl)ethyl)piperazin-1-yl)-4-methyl-5-oxo-4,5-dihydro-2H-pyrazolo[4,3-b]pyridin-2-yl)acetonitrile], the pIC50 against DGKζ is 6.33; at DGKα, 6.08. The matching figures for `CC[C@H]1CN(C(C)c2ccc3nc(C)cn3n2)[C@H](CC)CN1c1cc(=O)n(C)c2cn(CC#N)nc12` (single isomer, unassigned) [Compound A149a]: 5.57 and 5.95. The matching figures for `CC[C@@H]1CN(c2cc(=O)n(C)c3cn(CC#N)nc23)[C@@H](C)CN1C(C)c1ccc2ncsc2c1` (single isomer, unassigned) [Compound A92b]: 6.58 and 5.99. On the same counts, the results for `CC[C@H]1CN(C(C)c2cc(F)c(CN(C)C)c(F)c2)[C@H](CC)CN1c1cc(=O)n(C)c2cn(CC#N)nc12` (single isomer, unassigned) [Compound A25b] are 5.66 and 5.22. In the case of `CC[C@H]1CN(C(C)c2ccc(COC)nc2)[C@H](CC)CN1c1cc(=O)n(C)c2cn(CC#N)nc12` (single isomer, unassigned) [Compound A42b], the pIC50 is 5.30 at DGKζ and 5.18 on DGKα. On the same counts, the results for `CC[C@H]1CN(C(C)c2cc(F)c3ncsc3c2)[C@H](CC)CN1c1cc(=O)n(C)c2cn(CC#N)nc12` (single isomer, unassigned) [Compound A101b] are 5.91 and 4.75.

As for `CC[C@H]1CN(C(C)c2cc3scnc3cn2)[C@H](CC)CN1c1cc(=O)n(C)c2cn(CC#N)nc12` (stereo partly drawn) [Compound A97, 2-(7-((2S,5R)-2,5-diethyl-4-(1-(thiazolo[4,5-c]pyridin-6-yl)ethyl)piperazin-1-yl)-4-methyl-5-oxo-4,5-dihydro-2H-pyrazolo[4,3-b]pyridin-2-yl)acetonitrile], the pIC50 against DGKζ is 6.59; on DGKα, 6.30. The matching figures for `CC(c1ccc2ncsc2c1)N1C[C@H](C)N(c2cc(=O)n(C)c3cn(CC#N)nc23)C[C@H]1C` (stereo partly drawn) [Compound A93, 2-(7-((2S,5R)-4-(1-(benzo[d]thiazol-6-yl)ethyl)-2,5-dimethylpiperazin-1-yl)-4-methyl-5-oxo-4,5-dihydro-2H-pyrazolo[4,3-b]pyridin-2-yl)acetonitrile]: 7.00 and 6.31. The matching figures for `CC[C@H]1CN(C(C)c2ccc(CNC)cc2)[C@H](CC)CN1c1cc(=O)n(C)c2cn(CC#N)nc12` (stereo partly drawn) [Compound A29, 2-(7-((2S,5R)-2,5-diethyl-4-(1-(4-((methylamino)methyl)phenyl)ethyl)piperazin-1-yl)-4-methyl-5-oxo-4,5-dihydro-2H-pyrazolo[4,3-b]pyridin-2-yl)acetonitrile]: 5.41 and 5.59. Regarding `CC[C@@H]1CN(c2cc(=O)n(C)c3cn(CC#N)nc23)[C@@H](C)CN1C(C)c1ccc2cc(F)sc2n1` (stereo partly drawn) [Compound A132, 2-(7-((2S,5R)-5-ethyl-4-(1-(2-fluorothieno[2,3-b]pyridin-6-yl)ethyl)-2-methylpiperazin-1-yl)-4-methyl-5-oxo-4,5-dihydro-2H-pyrazolo[4,3-b]pyridin-2-yl)acetonitrile], the pIC50 is 6.86 at DGKζ and 7.20 on DGKα. On the same counts, the results for `CC[C@H]1CN(C(C)c2cc3scnc3cc2F)[C@H](CC)CN1c1cc(=O)n(C)c2cn(CC#N)nc12` (single isomer, unassigned) [Compound A103b] are 6.20 and 5.87. Take `CC[C@H]1CN(C(C)c2ccc(OC3COC3)c(C)c2)[C@H](CC)CN1c1cc(=O)n(C)c2cn(CC#N)nc12` (single isomer, unassigned) [Compound A21b]: the results for the pIC50 at DGKζ and against DGKα were below 5.00 and below 3.82, respectively. On the same counts, the results for `CC[C@H]1CN(C(C)c2ccc(C(F)(F)F)c(C)n2)[C@H](CC)CN1c1cc(=O)n(C)c2cn(CC#N)nc12` (stereo partly drawn) [Compound A50, 2-(7-((2S,5R)-2,5-diethyl-4-(1-(6-methyl-5-(trifluoromethyl)pyridin-2-yl)ethyl)piperazin-1-yl)-4-methyl-5-oxo-4,5-dihydro-2H-pyrazolo[4,3-b]pyridin-2-yl)acetonitrile] are 7.08 and 6.15. On the same counts, the results for `CC[C@H]1CN(C(C)c2ccc(C3CC3)nc2)[C@H](CC)CN1c1cc(=O)n(C)c2cn(C3COC3)nc12` (stereo partly drawn) [Compound A121, 7-((2S,5R)-4-(1-(6-cyclopropylpyridin-3-yl)ethyl)-2,5-diethylpiperazin-1-yl)-4-methyl-2-(oxetan-3-yl)-2,4-dihydro-5H-pyrazolo[4,3-b]pyridin-5-one] are 5.83 and 5.51. On the same counts, the results for `CC[C@H]1CN(C(C)c2ccc3c(F)cnn3c2)[C@H](CC)CN1c1cc(=O)n(C)c2cn(CC#N)nc12` (stereo partly drawn) [Compound A76, 2-(7-((2S,5R)-2,5-diethyl-4-(1-(3-fluoropyrazolo[1,5-a]pyridin-6-yl)ethyl)piperazin-1-yl)-4-methyl-5-oxo-4,5-dihydro-2H-pyrazolo[4,3-b]pyridin-2-yl)acetonitrile] are 6.75 and 5.80. Compound `CC[C@H]1CN(C(C)c2ccc(N)nc2)[C@H](CC)CN1c1cc(=O)n(C)c2cn(CC#N)nc12` (single isomer, unassigned) [Compound A187b] showed a pIC50 on DGKα of 4.92.

The values above are taken from patent publication US20250346597A1, “CONDENSED HETEROCYCLIC COMPOUNDS AS INHIBITOR OF DIACYLGLYCEROL KINASES” (BEONE MEDICINES I GMBH, priority 2023, published 2025).
